Data set [1] concerns the target T1, Strep‐TP‐spacer‐RT‐His8 (HBVpol 1‐690aa; TP‐RT) (Hepatitis B virus ar/Japan/S-207/1988, UniProt Q9YZR5).
T1 construct: gene P; residues 1-690 of HBV polymerase (TP, spacer, RT); no polymerase activity detected
T1 sequence (Q9YZR5 1-690): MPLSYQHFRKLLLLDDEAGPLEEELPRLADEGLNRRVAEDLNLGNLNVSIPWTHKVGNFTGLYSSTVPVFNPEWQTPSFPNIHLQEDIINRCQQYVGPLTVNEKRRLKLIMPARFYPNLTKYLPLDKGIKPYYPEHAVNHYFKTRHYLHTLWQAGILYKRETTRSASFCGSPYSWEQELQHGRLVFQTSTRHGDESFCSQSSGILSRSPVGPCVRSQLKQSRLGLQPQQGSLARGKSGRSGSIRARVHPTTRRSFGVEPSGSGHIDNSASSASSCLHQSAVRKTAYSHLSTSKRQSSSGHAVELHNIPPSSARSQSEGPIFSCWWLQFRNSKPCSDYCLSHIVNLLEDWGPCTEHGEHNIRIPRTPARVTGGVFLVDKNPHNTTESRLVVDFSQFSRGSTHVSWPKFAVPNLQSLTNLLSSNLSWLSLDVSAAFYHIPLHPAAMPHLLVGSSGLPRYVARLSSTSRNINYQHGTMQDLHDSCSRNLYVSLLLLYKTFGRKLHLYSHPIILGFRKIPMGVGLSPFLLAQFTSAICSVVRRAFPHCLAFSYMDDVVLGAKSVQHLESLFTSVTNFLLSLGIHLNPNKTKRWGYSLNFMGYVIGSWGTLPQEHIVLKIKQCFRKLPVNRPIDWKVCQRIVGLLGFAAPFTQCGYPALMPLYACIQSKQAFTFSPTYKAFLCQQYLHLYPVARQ
In words: surface plasmon resonance. The following applies: binding considered nonspecific by the authors (also binds GFP control); unreliable.

The target of data set [2] is T1, Strep‐TP‐spacer‐RT‐His8 (HBVpol 1‐690aa; TP‐RT). In words: plate assay, inhibition of DIG-labelled epsilon RNA binding to immobilised protein, luminescence. The following applies: 5 pmol DIG-epsilon RNA WT, pH 7.5, room temperature, 3 hr; binding considered nonspecific by the authors; unreliable.
Data set [3] has as its target T2, Strep‐TP‐spacer‐RT‐His8 (HBVpol 1‐690aa; TP‐RT) (Hepatitis B virus ar/Japan/S-207/1988, UniProt Q9YZR5).
T2 construct: gene P; residues 1-690 of HBV polymerase (TP, spacer, RT); no polymerase activity detected
Described as above. The following applies: 5 pmol DIG-epsilon RNA WT, pH 7.5, room temperature, 3 hr.

For data set [4], the target named is T2, Strep‐TP‐spacer‐RT‐His8 (HBVpol 1‐690aa; TP‐RT). Put plainly: surface plasmon resonance. The data set is classed as binding.
Data set [5] concerns the target T3, Strep-TP-spacer-RT-His8 (HBV polymerase TP-spacer-RT), refolded (Hepatitis B virus, UniProt Q9YZR5 1-690).
T3 sequence: T1 sequence (Q9YZR5 1-690)
In words: streptavidin plate binding assay (anti-DIG-HRP luminescence); refolded protein; 5 pmol RNA; 50 mM Tris-HCl pH 7.5, 150 mM NaCl, 1 mM EDTA, 0.05% NP-40, 1 mg/ml BSA, 1 ug/ml poly(I/C), 0.1% protease inhibitor cocktail, 2 mM DTT; room temperature, 3 h (competition 30 min). The following applies: protein: recombinant, tags: N-terminal Strep, self-annealed.

In a further data set the target is T4, His6-SUMO-TP (Hepatitis B virus, UniProt Q9YZR5 1-177).
T4 sequence: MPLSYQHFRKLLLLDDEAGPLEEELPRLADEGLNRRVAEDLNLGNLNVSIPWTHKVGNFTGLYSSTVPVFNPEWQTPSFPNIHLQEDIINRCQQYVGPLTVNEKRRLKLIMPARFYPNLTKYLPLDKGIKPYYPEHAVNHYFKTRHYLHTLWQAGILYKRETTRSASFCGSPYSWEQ
Put plainly: nickel plate binding assay (anti-DIG-HRP luminescence); 5 pmol RNA; no specific binding; 50 mM Tris-HCl pH 7.5, 150 mM NaCl, 1 mM EDTA, 0.05% NP-40, 1 mg/ml BSA, 1 ug/ml poly(I/C), 0.1% protease inhibitor cocktail, 2 mM DTT; room temperature, 3 h (competition 30 min). As to conditions: protein: recombinant; tags: N-terminal His6-SUMO; hairpin with central bulge and apical loop, self-annealed.

The molecule `NC(Cc1cc(O)c(O)cc1O)C(=O)O` (racemic) [6‐hydroxy‐DL‐DOPA] displayed a dissociation constant (KD) in data set [1] of 11 nM. Further, the IC50 in data set [2] is listed as ~ 6.6 µM.

As for `CCCCCCCC/C=C\CCCCCCCC(=O)NCCc1ccc(O)c(O)c1` [N‐oleoyldopamine], the IC50 in data set [3] was approximately 410 nM. The molecule further displayed a Kd in data set [4] of 72 nM.

B1: epsilon dBdL RNA (central bulge and apical loop deleted) (structured_RNA)
RNA: UCUCAUGUUCAUGUCCUAGCCUCCAAUUGGGUGGCUUUGGGGCAUGGACAUUGAC
With B1, the binding result in data set [5] (hairpin) is recorded as “no binding”.

B2: epsilon WT RNA (structured_RNA)
RNA: UCUCAUGUUCAUGUCCUACUGUUCAAGCCUCCAAGCUGUGCCUUGGGUGGCUUUGGGGCAUGGACAUUGA
B2: the binding result with His6-SUMO-TP was “no binding”; in data set [5] (hairpin with central bulge and apical loop), “binds”.

Values taken from publication PMC7496097, “Establishment of a system for finding inhibitors of ε RNA binding with the HBV polymerase” (Genes to Cells, 2020).
